Results published in publication PMC11121450, “Evaluation of the Inhibitory Potential of Synthetic Peptides Homologous to CDR3 Regions of a Monoclonal Antibody against Bothropic Venom Serine Proteases” (International Journal of Molecular Sciences, 2024).
Residues, ends and D or L forms follow the SMILES beside them. No end group written: not given here.

Tests used:
[1] = test system: B. jararaca and B. atrox venoms; assay type: in vitro ADME, Bothrops jararaca; Bothrops atrox; settings: incubation with B. jararaca and B. atrox venoms (0.1 µg of both venoms per table footnote; 90 ng and 20 ng per method), 50 µM peptide, 4 h, 37 °C, 100 mM Tris HCl, 20 mM NaCl, pH 7.4; RP-HPLC C-18, UV 214 nm; relative to β-chain of insulin
Procedure: To verify the stability of the synthetic peptides, they were incubated with both venoms, and tests were performed using reverse-phase liquid chromatography on a C-18 column. […] As a positive control, the β-chain of insulin was used, which is known to be a substrate for the SVSPs and SVMPs of bothropic venoms.
With the aim of verifying the possible hydrolysis of peptides by the studied venoms, the samples were prepared in 100 mM Tris-HCl, 20 mM NaCl, pH 7.4, final volume 100 µL, using 50 µM of each synthetic peptide, incubating them separately with the venoms of B. jararaca (90 ng) and B. atrox (20 ng) for 4 h at 37 °C, the same concentrations used in the enzymatic assays. A solution containing the β-chain of insulin (50 µM) was used as a positive control since it is a described substrate for SVSP from both venoms. The conditions for the HPLC (Shimadzu Prominence) analysis used 0.1% trifluoroacetic acid (TFA) in water (solvent A), and acetonitrile (ACN) and solvent A (9:1) as solvent B. The analyses occurred at a flow rate of 1 mL/min using a C-18 column (Shim-pack VP-ODS4.6 x 150 mm) and a gradient of 20–60% solvent B for 20 min. In all cases, 50 µL of each sample was injected and the absorbance was monitored at 214 nm.

human thrombin = human thrombin (Homo sapiens, UniProt P00734); assay: Inhibition of human thrombin, Abz-FRSSRQ-EDDnp substrate; assay type: biochemical; settings: for Ki: Dixon plot, three peptide concentrations including zero, thrombin 300 ng/µL, Abz-FRSSRQ-EDDnp substrate, read-out: inhibition constant (Ki) against human thrombin; for reduction of hydrolytic activity of thrombin: peptide 100 µM, 300 ng human thrombin, Abz-FRSSRQ-EDDnp 5 µM, 100 mM Tris-HCl, 20 mM NaCl, pH 7.4, 37 °C, quadruplicate
Procedure: Figure 8 Inhibitory activity assay against human thrombin (panel A), trypsin (panel B), and elastase-1 (panel C). The experiments were performed in a fluorimeter (Hidex 425-301, Turku, Finland), with readings adjusted for excitation and emission at 320 and 420 nm using Abz-FRSSRQ-EDDnp as a substrate. Assays were performed in quadruplicate, in Tris-HCl 50 mM, pH 8.0 (for trypsin and elastase-1 assays), and 100 mM Tris-HCl, 20 mM NaCl, pH 7.4, for human thrombin at 37 °C, using 1.7 ng/µL of trypsin, 300 ng/µL of human thrombin, and 300 ng of elastase-1. […] Panel (B): For these assays, the peptides were used at 100 µM, and CDR3 A and CDR3 E inhibited the substrate hydrolysis by thrombin by 34% and 100%, respectively. […] (****) p < 0.0001.
With the obtained velocities, curves were plotted on the Dixon plot (1/V versus [I]) (Figure 9).
Lines indicate a competitive mechanism of action. Kis of 61.77 µM (CDR3 A) and 55.75 (CDR3 E) were obtained. For the construction of the graph, the software GraphPad Prism 8 was used.
(§1) To verify the selective inhibition of the SVTLE by the peptides, it was necessary to perform experiments with other serine proteases of physiological relevance. For this, the possible inhibition of elastase-1 (EC 3.4.21.36), trypsin (EC 3.4.21.4), and human thrombin (EC 3.4.21.5) was analyzed. The evaluation of enzyme activities was performed as described above. The activities were assessed in 50 mM Tris-HCl, pH 8, for trypsin; Tris-HCl 50 mM, NaCl 50 mM, pH 8, for elastase-1; and 100 mM Tris-HCl, 20 mM NaCl, pH 7.4, for human thrombin (final volume of 100 µL), using 96-well plates (Corning) and the substrate Abz-FRSSRQ-EDDnp (5 µM). All reactions occurred at 37 °C using 1.7 ng of trypsin, 300 ng of human thrombin, and 300 ng of elastase-1. Assays were performed on a Hidex fluorimeter (425-301 Hidex, Turku, Finland), with the excitation and emission of fluorescence fixed at 320 and 420 nm, respectively. The trypsin and elastase-1 assays were performed using 20 µM of each peptide, and the human thrombin assays were performed using 100 µM. The readings occurred over 15 min at 1 min intervals. The experiments were performed in quadruplicate.

[2] = molecular target: elastase-1 (EC 3.4.21.36) (Sus scrofa, UniProt P00772); assay: Inhibition of elastase-1, Abz-FRSSRQ-EDDnp substrate; assay type: biochemical; settings: peptide 20 µM, 300 ng elastase-1, Abz-FRSSRQ-EDDnp 5 µM, Tris-HCl 50 mM, pH 8, 37 °C, quadruplicate
Procedure: Figure 8 Inhibitory activity assay against human thrombin (panel A), trypsin (panel B), and elastase-1 (panel C). The experiments were performed in a fluorimeter (Hidex 425-301, Turku, Finland), with readings adjusted for excitation and emission at 320 and 420 nm using Abz-FRSSRQ-EDDnp as a substrate. Assays were performed in quadruplicate, in Tris-HCl 50 mM, pH 8.0 (for trypsin and elastase-1 assays), and 100 mM Tris-HCl, 20 mM NaCl, pH 7.4, for human thrombin at 37 °C, using 1.7 ng/µL of trypsin, 300 ng/µL of human thrombin, and 300 ng of elastase-1. […]
as §1, with “The evaluation of enzyme activities was performed as described above.” left out, “All reactions occurred at 37 °C using 1.7 ng of trypsin, 300 ng of human thrombin, and 300 ng of elastase-1.” left out, “The trypsin and elastase-1 assays were performed using 20 µM of each peptide, and the human thrombin assays were performed using 100 µM.” left out, “The experiments were performed in quadruplicate.” left out

Chain of elastase-1 (EC 3.4.21.36) (P00772 27-266): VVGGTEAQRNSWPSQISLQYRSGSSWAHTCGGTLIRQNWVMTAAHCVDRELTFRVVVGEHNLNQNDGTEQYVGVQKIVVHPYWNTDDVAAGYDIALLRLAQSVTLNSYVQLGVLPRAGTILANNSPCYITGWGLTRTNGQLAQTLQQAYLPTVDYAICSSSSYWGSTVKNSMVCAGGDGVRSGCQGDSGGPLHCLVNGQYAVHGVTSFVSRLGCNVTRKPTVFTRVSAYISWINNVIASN

CC(C)C[C@H](NC(=O)[C@H](CC(N)=O)NC(=O)[C@H](Cc1ccc(O)cc1)NC(=O)[C@H](CO)NC(=O)[C@H](CCC(N)=O)NC(=O)[C@H](CCCCN)NC(=O)[C@H](CS)NC(=O)CNC(=O)[C@@H]1CCCN1C(=O)CNC(=O)CNC(=O)[C@H](Cc1ccc(O)cc1)NC(=O)[C@H](CC(=O)O)NC(=O)[C@H](Cc1ccccc1)NC(=O)[C@H](Cc1ccc(O)cc1)NC(=O)[C@H](Cc1ccc(O)cc1)NC(=O)CNC(=O)[C@H](CC(=O)O)NC(=O)[C@H](Cc1c[nH]c2ccccc12)NC(=O)[C@H](CC(=O)O)NC(=O)[C@H](CCCNC(=N)N)NC(=O)[C@H](CCCCN)NC(=O)[C@@H](N)CS)C(=O)N[C@@H](CCCNC(=N)N)C(=O)N[C@H](C(=O)O)[C@@H](C)O [CDR3 D] (H-CKRDWDGYYFDYGGPGCKQSYNLRT-OH)
Relative Hydrolysis Ratio (%) [1]: <0.01%

CC(C)C[C@H](NC(=O)[C@H](CC(N)=O)NC(=O)[C@H](Cc1ccc(O)cc1)NC(=O)[C@H](CO)NC(=O)[C@H](CCC(N)=O)NC(=O)[C@H](CCCCN)NC(=O)[C@H](CS)NC(=O)CNC(=O)CNC(=O)[C@@H]1CCCN1C(=O)CNC(=O)CNC(=O)[C@H](Cc1ccc(O)cc1)NC(=O)[C@H](CC(=O)O)NC(=O)[C@H](Cc1ccccc1)NC(=O)[C@H](Cc1ccc(O)cc1)NC(=O)[C@H](Cc1ccc(O)cc1)NC(=O)CNC(=O)[C@H](CC(=O)O)NC(=O)[C@H](Cc1c[nH]c2ccccc12)NC(=O)[C@H](CC(=O)O)NC(=O)[C@H](CCCNC(=N)N)NC(=O)[C@H](CCCCN)NC(=O)[C@@H](N)CS)C(=O)N[C@@H](CCCNC(=N)N)C(=O)N[C@H](C(=O)O)[C@@H](C)O [CDR3 E] (H-CKRDWDGYYFDYGGPGGCKQSYNLRT-OH)
Relative Hydrolysis Ratio (%) [1]: <0.01% | Ki (human thrombin): 55.7 µM | reduction of hydrolytic activity of thrombin (human thrombin): 100%

CKQSYNLRT [CDR3 C]
Relative Hydrolysis Ratio (%) [1]: <0.01% | reduction of substrate hydrolysis by elastase-1 [2]: 22%

CKRDWDGYYFDY [CDR3 A]
Relative Hydrolysis Ratio (%) [1]: <0.01% | Ki (human thrombin): 61.8 µM | reduction of hydrolytic activity of thrombin (human thrombin): 34%
